Data: US6043217A, “Amide derivative of amythiamicin” (Zaidan Hojin Biseibutsu Kagaku Kenyu Kai, priority 1996, dated 2000)

Legend:
Type in all cases: cell-based
[1] = test system: Escherichia coli NIHJ; assay: MIC, standard serial dilution method; settings: Muller-Hinton agar medium, 37° C.
[2] = test system: Staphylococcus aureus No. 17 (MRSA); assay: MIC, standard serial dilution method; settings: Muller-Hinton agar medium, 37° C.
[3] = test system: Salmonella enteritidis 1891; assay: MIC, standard serial dilution method; settings: Muller-Hinton agar medium, 37° C.
[4] = test system: Staphylococcus aureus Smith; assay: MIC, standard serial dilution method; settings: Muller-Hinton agar medium, 37° C.
[5] = test system: Staphylococcus aureus TY-0428; assay: MIC, standard serial dilution method; settings: Muller-Hinton agar medium, 37° C.
[6] = test system: Micrococcus luteus FDA 16; assay: MIC, standard serial dilution method; settings: Muller-Hinton agar medium, 37° C.
[7] = test system: Staphylococcus aureus No. 5 (MRSA); assay: MIC, standard serial dilution method; settings: Muller-Hinton agar medium, 37° C.
[8] = test system: Shigella dysenteria JS 11910; assay: MIC, standard serial dilution method; settings: Muller-Hinton agar medium, 37° C.
[9] = test system: Corynebacterium bovis 1810; assay: MIC, standard serial dilution method; settings: Muller-Hinton agar medium, 37° C.
[10] = test system: Salmonella typhi T-63; assay: MIC, standard serial dilution method; settings: Muller-Hinton agar medium, 37° C.
[11] = test system: Proteus vulgaris OX 19; assay: MIC, standard serial dilution method; settings: Muller-Hinton agar medium, 37° C.
[12] = test system: Escherichia coli BEM 1121; assay: MIC, standard serial dilution method; settings: Muller-Hinton agar medium, 37° C.
[13] = test system: Candida albicans 3147; assay: MIC, standard serial dilution method; settings: Muller-Hinton agar medium, 37° C.
[14] = test system: Providencia rettgeri GN 311; assay: MIC, standard serial dilution method; settings: Muller-Hinton agar medium, 37° C.
[15] = test system: Shigella clexnerl JS 11749; assay: MIC, standard serial dilution method; settings: Muller-Hinton agar medium, 37° C.
Experimental: (§1) The antibacterial activities of the amythiamicin amide derivative of the general formula (I) according to this invention are now concretely described. Compounds No. 1 to No. 11 according to this invention, which were respectively prepared in Examples 1 to 11 hereinafter given, were tested as the test compounds for their minimum inhibitory concentrations (MIC.) (μg/ml) against growth of a variety of test microorganisms by a standard serial dilution method. In the tests, the incubation medium used was Muller-Hinton agar medium and the incubation temperature was 37° C. The test results are shown as antibacterial spectra in the following Tables 2 and 3.

[16] = test system: Escherichia coli K-12 ML 1692; assay: MIC, standard serial dilution method; settings: Muller-Hinton agar medium, 37° C.
Experimental: as §1

[17] = test system: Shigella sonnei JS 11746; assay: MIC, standard serial dilution method; settings: Muller-Hinton agar medium, 37° C.
Experimental: as §1

[18] = test system: Staphylococcus aureus MS 9610; assay: MIC, standard serial dilution method; settings: Muller-Hinton agar medium, 37° C.
[19] = test system: Bacillus subtilis NRRL B-558; assay: MIC, standard serial dilution method; settings: Muller-Hinton agar medium, 37° C.
[20] = test system: Staphylococcus aureus MS 16526; assay: MIC, standard serial dilution method; settings: Muller-Hinton agar medium, 37° C.
[21] = test system: Pseudomonas aeruginosa GN315; assay: MIC, standard serial dilution method; settings: Muller-Hinton agar medium, 37° C.
[22] = test system: Serratia marcescens; assay: MIC, standard serial dilution method; settings: Muller-Hinton agar medium, 37° C.
[23] = test system: Escherichia coli K-12; assay: MIC, standard serial dilution method; settings: Muller-Hinton agar medium, 37° C.
[24] = test system: Klebsiella pneumonia PCI 602; assay: MIC, standard serial dilution method; settings: Klebsiella pneumonia PCI 602 (Table 2); Muller-Hinton agar medium, 37° C.
[25] = test system: Bacillus cereus ATCC 10702; assay: MIC, standard serial dilution method; settings: Muller-Hinton agar medium, 37° C.
[26] = test system: Bacillus anthracis; settings: Muller-Hinton agar medium, 37° C.
[27] = test system: Proteus mirabilis IFM OM-9; assay: MIC, standard serial dilution method; settings: Muller-Hinton agar medium, 37° C.
[28] = test system: Escherichia coli BEM 11; assay: MIC, standard serial dilution method; settings: Muller-Hinton agar medium, 37° C.
[29] = test system: Providencia rettgeri GN 466; assay: MIC, standard serial dilution method; settings: Muller-Hinton agar medium, 37° C.
[30] = test system: Micrococcus luteus IFO 3333; assay: MIC, standard serial dilution method; settings: Muller-Hinton agar medium, 37° C.
[31] = test system: Escherichia coli BE 1186; assay: MIC, standard serial dilution method; settings: Muller-Hinton agar medium, 37° C.
[32] = test system: Staphylococcus aureus FDA 209P; assay: MIC, standard serial dilution method; settings: Muller-Hinton agar medium, 37° C.
[33] = test system: Micrococcus luteus PIC 1001; assay: MIC, standard serial dilution method; settings: Muller-Hinton agar medium, 37° C.
[34] = test system: Pseudomonas aeruginosa A3; assay: MIC, standard serial dilution method; settings: Muller-Hinton agar medium, 37° C.
[35] = test system: Bacillus subtilis PCI 219; assay: MIC, standard serial dilution method; settings: Muller-Hinton agar medium, 37° C.
[36] = test system: Mycobacterium smegmatis ATCC 607; assay: MIC, standard serial dilution method; settings: Muller-Hinton agar medium, 37° C.

Structure (SMILES)	Minimum growth inhibitory concentrations (MIC.) [1] [µg/mL]	Minimum growth inhibitory concentrations (MIC.) [2] [µg/mL]	Minimum growth inhibitory concentrations (MIC.) [3] [µg/mL]	Minimum growth inhibitory concentrations (MIC.) [4] [µg/mL]	Minimum growth inhibitory concentrations (MIC.) [5] [µg/mL]	Minimum growth inhibitory concentrations (MIC.) [6] [µg/mL]	Minimum growth inhibitory concentrations (MIC.) [7] [µg/mL]	Minimum growth inhibitory concentrations (MIC.) [8] [µg/mL]	Minimum growth inhibitory concentrations (MIC.) [9] [µg/mL]	Minimum growth inhibitory concentrations (MIC.) [10] [µg/mL]	Minimum growth inhibitory concentrations (MIC.) [11] [µg/mL]	Minimum growth inhibitory concentrations (MIC.) [12] [µg/mL]	Minimum growth inhibitory concentrations (MIC.) [13] [µg/mL]	Minimum growth inhibitory concentrations (MIC.) [14] [µg/mL]	Minimum growth inhibitory concentrations (MIC.) [15] [µg/mL]	Minimum growth inhibitory concentrations (MIC.) [16] [µg/mL]	Minimum growth inhibitory concentrations (MIC.) [17] [µg/mL]	Minimum growth inhibitory concentrations (MIC.) [18] [µg/mL]	Minimum growth inhibitory concentrations (MIC.) [19] [µg/mL]	Minimum growth inhibitory concentrations (MIC.) [20] [µg/mL]	also measured
CNC(=O)CC1NC(=O)c2csc(n2)-c2ccc(-c3nc(C(=O)NCCCCCC(=O)O)cs3)nc2-c2csc(n2)-c2csc(n2)C(C(C)C)NC(=O)CNC(=O)c2csc(n2)C(C(C)C)NC(=O)c2nc1sc2C (stereo not shown) [Compound No. 2]	> 100	0.2	6.25	0.1	0.2	0.39	0.2	3.13	0.31	> 100	> 100	> 100	> 100	> 100	> 100	> 100	> 100	0.2	1.56	0.2	Minimum growth inhibitory concentrations (MIC.) [21]: > 100 µg/mL; Minimum growth inhibitory concentrations (MIC.) [22]: > 100 µg/mL; Minimum growth inhibitory concentrations (MIC.) [23]: > 100 µg/mL; Minimum growth inhibitory concentrations (MIC.) [24]: > 100 µg/mL; Minimum growth inhibitory concentrations (MIC.) [25]: 0.1 µg/mL; Minimum growth inhibitory concentrations (MIC.) [26]: < 0.03 µg/mL; Minimum growth inhibitory concentrations (MIC.) [27]: > 100 µg/mL; Minimum growth inhibitory concentrations (MIC.) [28]: > 100 µg/mL; Minimum growth inhibitory concentrations (MIC.) [29]: > 100 µg/mL; Minimum growth inhibitory concentrations (MIC.) [30]: 0.39 µg/mL; Minimum growth inhibitory concentrations (MIC.) [31]: > 100 µg/mL; Minimum growth inhibitory concentrations (MIC.) [32]: 0.1 µg/mL; Minimum growth inhibitory concentrations (MIC.) [33]: 0.1 µg/mL; Minimum growth inhibitory concentrations (MIC.) [34]: > 50 µg/mL; Minimum growth inhibitory concentrations (MIC.) [35]: 0.2 µg/mL
CNC(=O)CC1NC(=O)c2csc(n2)-c2ccc(-c3nc(C(=O)NCCCN(C)CCCNCCc4ccc(Cl)cc4)cs3)nc2-c2csc(n2)-c2csc(n2)C(C(C)C)NC(=O)CNC(=O)c2csc(n2)C(C(C)C)NC(=O)c2nc1sc2C (stereo not shown) [Compound No. 7]	> 100	> 100	> 100	> 100	> 100	6.25	> 100	> 100	25	> 100	> 100	> 100	> 100	> 100	> 100	> 100	> 100	> 100	> 100	> 100	Minimum growth inhibitory concentrations (MIC.) [21]: > 100 µg/mL; Minimum growth inhibitory concentrations (MIC.) [22]: > 100 µg/mL; Minimum growth inhibitory concentrations (MIC.) [23]: > 100 µg/mL; Minimum growth inhibitory concentrations (MIC.) [24]: > 100 µg/mL; Minimum growth inhibitory concentrations (MIC.) [25]: > 100 µg/mL; Minimum growth inhibitory concentrations (MIC.) [26]: > 100 µg/mL; Minimum growth inhibitory concentrations (MIC.) [27]: > 100 µg/mL; Minimum growth inhibitory concentrations (MIC.) [36]: > 100 µg/mL; Minimum growth inhibitory concentrations (MIC.) [28]: > 100 µg/mL; Minimum growth inhibitory concentrations (MIC.) [29]: > 100 µg/mL; Minimum growth inhibitory concentrations (MIC.) [30]: 12.5 µg/mL; Minimum growth inhibitory concentrations (MIC.) [31]: > 100 µg/mL; Minimum growth inhibitory concentrations (MIC.) [32]: > 100 µg/mL; Minimum growth inhibitory concentrations (MIC.) [33]: 12.5 µg/mL; Minimum growth inhibitory concentrations (MIC.) [34]: > 100 µg/mL; Minimum growth inhibitory concentrations (MIC.) [35]: 50 µg/mL
CNC(=O)CC1NC(=O)c2csc(n2)-c2ccc(-c3nc(C(=O)NCCCCCC(=O)OC)cs3)nc2-c2csc(n2)-c2csc(n2)C(C(C)C)NC(=O)CNC(=O)c2csc(n2)C(C(C)C)NC(=O)c2nc1sc2C (stereo not shown) [Compound No. 1]	> 100	> 100	> 100	> 100	> 100	> 100	> 100	> 100	> 100	> 100	> 100	> 100	> 100	> 100	> 100	> 100	> 100	> 100	> 100	> 100	Minimum growth inhibitory concentrations (MIC.) [21]: > 100 µg/mL; Minimum growth inhibitory concentrations (MIC.) [22]: > 100 µg/mL; Minimum growth inhibitory concentrations (MIC.) [23]: > 100 µg/mL; Minimum growth inhibitory concentrations (MIC.) [24]: > 100 µg/mL; Minimum growth inhibitory concentrations (MIC.) [25]: 3.13 µg/mL; Minimum growth inhibitory concentrations (MIC.) [26]: 0.98 µg/mL; Minimum growth inhibitory concentrations (MIC.) [27]: > 100 µg/mL; Minimum growth inhibitory concentrations (MIC.) [28]: > 100 µg/mL; Minimum growth inhibitory concentrations (MIC.) [29]: > 100 µg/mL; Minimum growth inhibitory concentrations (MIC.) [30]: > 100 µg/mL; Minimum growth inhibitory concentrations (MIC.) [31]: > 100 µg/mL; Minimum growth inhibitory concentrations (MIC.) [32]: 50 µg/mL; Minimum growth inhibitory concentrations (MIC.) [33]: 3.13 µg/mL; Minimum growth inhibitory concentrations (MIC.) [34]: > 50 µg/mL; Minimum growth inhibitory concentrations (MIC.) [35]: > 100 µg/mL
